Tests used:
TBEV Hypr strain [1] = format: cell-based, tick-borne encephalitis virus
TBEV Neudoerfl strain [2] = format: cell-based, tick-borne encephalitis virus
in vitro = details: human, cytotoxic concentration (CC50) required to reduce cell viability by 50%
TBEV Neudoerfl strain [3] = experiment: microbe, parasite or virus in culture; format: cell-based, tick-borne encephalitis virus; details: for IC50: Tick-borne encephalitis virus, A549, 72 h, read-out: half-maximum inhibitory concentration (IC50), reduction of viral titer by 50%
TBEV Hypr strain [4] = format: cell-based, tick-borne encephalitis virus; remark: listed apart in the source
TBEV E and prM proteins = format: cell-based, tick-borne encephalitis virus
A549 cells = details: human

Row | SMILES | inhibition of TBEV infection, size and number of plaques (TBEV Neudoerfl strain [2]) | CC50 (in vitro) | cell viability after inhibitory treatment (protection from TBEV-induced CPE) (TBEV Hypr strain [4]) | reduction of number of plaques vs DMSO-treated infected cells (TBEV Neudoerfl strain [2]) | selectivity index (SI) CC50/IC50 (TBEV Neudoerfl strain [3]) | IC50 (TBEV Neudoerfl strain [3]) | other results
1 | CC1(C)OC2C(COC3CC(OCc4ccccc4)C(OCc4ccccc4)C(COCc4ccccc4)O3)OC(n3ccc(=O)[nH]c3=O)C2O1 (stereo not shown) [Compound 3] | minor or no antiviral effect | 97 µM | – | – | – | – | effect on viral growth (TBEV Hypr strain [1]): did not affect viral growth; effect on viral growth (TBEV Neudoerfl strain [3]): did not affect viral growth
2 | CC(=O)OCC1OC(OCC2OC(n3ccc(=O)n(Cc4ccccc4)c3=O)C3OC(C)(C)OC23)CC(OC(C)=O)C1OC(C)=O (stereo not shown) [Compound 8] | – | 225 µM | – | – | – | – | –
3 | CC(=O)OCC1OC(OCC2OC(n3ccc(=O)[nH]c3=O)C3OC(C)(C)OC23)CC(OC(C)=O)C1OC(C)=O (stereo not shown) [Compound 6] | – | 196 µM | – | – | – | – | –
4 | CC1(C)OC2C(COC3CC(OCc4ccccc4)C(OCc4ccccc4)C(CO[Si](C)(C)C(C)(C)C)O3)OC(n3ccc(=O)n(C(=O)c4ccccc4)c3=O)C2O1 (stereo not shown) [Compound 10] | nearly a complete inhibition of TBEV infection | 121 µM | 90% | 82–96% | 18.6 | 6.5 µM | –
5 | O=c1ccn(C2OC(COC3CC(O)C(O)C(CO)O3)C(O)C2O)c(=O)[nH]1 (stereo not shown) [Compound 9] | – | 238 µM | – | – | – | – | –
6 | CC1(C)OC2C(COC3CC(OCc4ccccc4)C(OCc4ccccc4)C(CO)O3)OC(n3ccc(=O)n(C(=O)c4ccccc4)c3=O)C2O1 (stereo not shown) [Compound 11] | nearly a complete inhibition of TBEV infection | 141 µM | 81% | 82–96% | 13.8 | 10.2 µM | –
7 | CC1(C)OC2C(COC3CC(OCc4ccccc4)C(OCc4ccccc4)C(COCc4ccccc4)O3)OC(n3ccc(=O)n(C(=O)c4ccccc4)c3=O)C2O1 (stereo not shown) [Compound 4] | nearly a complete inhibition of TBEV infection | 119 µM | ~99% | 90% | 85 | 1.4 µM | synthesis of E and prM proteins (TBEV E and prM proteins): completely inhibited the synthesis of both proteins; plaque formation (TBEV Neudoerfl strain [2]): no plaques were detected; reduction of the viral titer vs infected mock-treated cells (TBEV Neudoerfl strain [3]): 10^4 fold; virus detection in supernatant (TBEV Neudoerfl strain [3]): no virus was detected
8 | CC(=O)O[C@H]1[C@H](C)O[C@H](OC[C@H]2O[C@@H](n3ccc(=O)[nH]c3=O)[C@@H]3OC(C)(C)O[C@@H]32)C[C@@H]1O[Si](C)(C)C(C)(C)C [Compound 1] | minor or no antiviral effect | 74 µM | – | – | – | – | effect on viral growth (TBEV Hypr strain [1]): did not affect viral growth; effect on viral growth (TBEV Neudoerfl strain [3]): did not affect viral growth
9 | CC(=O)OCC1OC(OCC2OC(n3ccc(=O)[nH]c3=O)C3OC(C)(C)OC23)CC(OC(C)=O)C1OC(C)=O (stereo not shown) [Compound 7] | – | – | – | – | – | – | CC50 (A549 cells): 223 µM
10 | CC1(C)OC2C(COC3CC(OCc4ccccc4)C(OCc4ccccc4)C(CO[Si](C)(C)C(C)(C)C)O3)OC(n3ccc(=O)[nH]c3=O)C2O1 (stereo not shown) [Compound 5] | – | 79 µM | – | – | – | – | –
11 | CC(=O)O[C@H]1[C@H](C)O[C@H](OC[C@H]2O[C@@H](n3ccc(=O)n(C(=O)c4ccccc4)c3=O)[C@@H]3OC(C)(C)O[C@@H]32)C[C@@H]1O[Si](C)(C)C(C)(C)C [Compound 2] | nearly a complete inhibition of TBEV infection | 141 µM | ~99% | 98% | 26.6 | 5.3 µM | plaque formation (TBEV Neudoerfl strain [2]): no plaques were detected; TBEV titer (TBEV Neudoerfl strain [3]): undetectable levels
